Results: publication PMC11760959, “Broad substrate scope C-C oxidation in cyclodipeptides catalysed by a flavin-dependent filament” (Nature Communications, 2025)

How the values were obtained:
NdasCDO = system: T1, NdasCDO; assay: UV absorbance, initial rates; type: biochemical, Nocardiopsis dassonvillei; details: 50 mM Tris pH 9.0, 200 mM NaCl, 30 °C; O2 as oxidant
T1 construct: gene Ndas1146; both subunits co-expressed from pRSFDuet-1 in E. coli BL21(DE3), nickel HisTrap purified; A monomer 22 kDa, B monomer 11 kDa; filament of alternating A and B homodimers (A2B2 repeat)

[1] = molecular target: NdasCDO subunit A (NdasCDO-A), cyclodipeptide oxidase subunit A from Nocardiopsis dassonvillei (Nocardiopsis dassonvillei) (UniProt D7B1W6); assay: cryo-EM structure; helical reconstruction of NdasCDO filaments; purified complex dialysed against 20 mM Tris pH 9, 200 mM NaCl, 5 mM DTT, 4 uM on the grid; local refinement with a mask over two dimers of subunit A and two dimers of subunit B
[2] = molecular target: NdasCDO subunit B (NdasCDO-B), cyclodipeptide oxidase subunit B from Nocardiopsis dassonvillei (Nocardiopsis dassonvillei) (UniProt D7B1W7); assay: as above

Compound: O=C1N[C@@H](Cc2c[nH]c3ccccc23)C(=O)N[C@H]1CO [cWS]
- Km (NdasCDO): 800 µM

Compound: NdasCDO subunit A (NdasCDO-A), cyclodipeptide oxidase subunit A from Nocardiopsis dassonvillei (from UniProt D7B1W6 2-157) (enzyme)
- stoichiometry N [1]: 2

Compound: NdasCDO subunit B (NdasCDO-B), cyclodipeptide oxidase subunit B from Nocardiopsis dassonvillei (from UniProt D7B1W7 1-105) (enzyme)
- stoichiometry N [2]: 2

Compound: O=C1N[C@@H](Cc2c[nH]c3ccccc23)C(=O)N[C@H]1Cc1ccccc1 [cWF]
- Km (NdasCDO): 80 µM

Compound: O=C1CNC(=O)[C@H](Cc2ccccc2)N1 [cFG]
- Km (NdasCDO): 4200 µM
